Literature values as cited in patent publication US11549142B2, “CETP inhibitors for therapeutic use” (Hoffmann-La Roche Inc., priority 2013, dated 2023).

Assays:
CETP = target: T1, CETP (Homo sapiens, UniProt P11597); settings: humans; de Grooth et al.; cited from earlier work
T1 construct: host or cells: humans treated with the compound (endogenous plasma CETP)
T1 sequence (P11597 18-493): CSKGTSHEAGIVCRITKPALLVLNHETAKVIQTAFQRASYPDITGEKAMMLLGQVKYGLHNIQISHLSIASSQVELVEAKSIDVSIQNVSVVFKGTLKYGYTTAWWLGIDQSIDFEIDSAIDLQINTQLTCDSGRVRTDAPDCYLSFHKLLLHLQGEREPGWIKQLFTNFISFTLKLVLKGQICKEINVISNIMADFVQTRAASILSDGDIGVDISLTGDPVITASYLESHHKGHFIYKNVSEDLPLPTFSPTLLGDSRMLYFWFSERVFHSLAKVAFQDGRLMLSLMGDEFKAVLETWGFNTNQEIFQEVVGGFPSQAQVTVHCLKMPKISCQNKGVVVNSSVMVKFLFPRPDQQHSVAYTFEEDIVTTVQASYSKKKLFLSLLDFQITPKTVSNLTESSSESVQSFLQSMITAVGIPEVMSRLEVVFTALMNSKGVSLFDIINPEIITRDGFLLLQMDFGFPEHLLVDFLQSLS

[1] = rabbits, Okamoto et al., cited from earlier work

SMILES: CCC(CC)CC1(C(=O)Nc2ccccc2SC(=O)C(C)C)CCCCC1 [dalcetrapib, thioisobutyric acid S-(2-{[1-(2-ethyl-butyl)-cyclohexanecarbonyl]-amino}-phenyl) ester]
- CETP activity (CETP): inhibitor of CETP activity
- LDL cholesterol [1]: decrease LDL cholesterol
- plasma HDL cholesterol ([1]; Shinkai et al., Kobayashi et al.): increase plasma HDL cholesterol
